Assay results from patent US4325974A, “β, γ-Dihydropolyprenyl alcohol and hypotensive pharmaceutical composition containing same” (Eisai Co., Ltd., priority 1978, dated 1982).

Legend:
[1] = system: spontaneously hypertensive rats (SHR) of Okamoto and Aoki; test: Hypotensive effect on spontaneously hypertensive rats (blood pressure, tail-cuff method; heart rate, tachometer); format: in vivo, rat (SHR of Okamoto and Aoki); conditions: 10 mg/kg oral
Method: I. The hypotensive effect of the formula (I) compound, according to the invention, on spontaneously hypertensive rats (hereinafter referred to as SHR) of Okamoto and Aoki:
The hypotensive effects of the test compounds on SHR of Okamoto and Aoki of about 35 weeks age were determined. The systolic blood pressure of the SHR was around 230 mmHg.
The test compounds were given to the SHR orally in the form of a suspension in aqueous acacia solution. The SHR were divided into a test compound group to which a test compound was administered and a control group to which only an aqueous acacia solution (free of test compound) was administered. Each group comprised three SHR.
The blood pressure of the SHR was measured with a Shimazu continuous tonometer SCS-301 (a product of Shimazu Seisakusho Co., Ltd.). Tail artery pressure was indirectly measured by a tail-cuff method.
The blood pressure was measured immediately before the administration and at 2, 4, 6 and 24 hours after the administration to determine the change in blood pressure with the passing of time.
The heart rate was determined by recording the pulse rate at the tail of the SHR with a tachometer of said tonometer […]. Test Compound and Dose
10 mg/kg (body weight of SHR)

[2] = system: hepatic disease (hepatitis), induced by intraabdominal administration of D-galactosamine; test: Effect on hepatic disease (hepatitis) induced by intraabdominal administration of D-galactosamine; format: in vivo; conditions: SD rats
Method: II. The effects of the formula (I) compound, according to the invention, on hepatic disease (hepatitis), induced by intraabdominal administration of D-galactosamine.
SD rats weighing about 250 g were used as test animals. D-Galactosamine hydrochloride (250 mg/kg each administration) and the test compound (50 mg/kg each administration) were administered intraabdominally to the rats on the schedule of experiments set forth below. After completion of the administration, blood was drawn from the test animals. The GPT value and alkali phosphatase value of the blood, which are indexes of the hepatic disease, were determined.
The test compound was used in the form of a suspension in 5% aqueous acacia solution. D-Galactosamine hydrochloride was used in the form of an aqueous solution thereof in distilled water, which solution was adjusted to pH 7 with potassium hydroxide. The rats were divided into three groups, i.e., a test compound group (comprising 9 rats) to which the test compound was administered, a control group (comprising 14 rats) to which 5% aqueous acacia solution free of the test compound was administered and a normal group (comprising 9 rats) to which neither the test compound nor D-galactosamine hydrochloride was administered. [drawing 9]

CC(C)=CCCC(C)=CCCC(C)=CCCC(C)=CCCC(C)=CCCC(C)=CCCC(C)=CCCC(C)=CCCC(C)=CCCC(C)CCO (centres unmarked) [test compound, 3,7, 11, 15, 19, 23, 27, 31, 35, 39-Decamethyl-6, 10, 14, 18, 22, 26, 30, 34, 38-tetracontanonaene-1-ol]
blood pressure two hours after the administration ([1]; 2 h, before administration 227±7 mmHg): 207±9 mmHg
blood pressure six hours after the administration ([1]; 6 h, before administration 227±7 mmHg, control 232±7 mmHg at 6 h): 202±12 mmHg
blood pressure 24 hours after the administration ([1]; 24 h, before administration 227±7 mmHg): 212±9 mmHg
effect on the heart rate ([1]; result in words): No effect on the heart rate was observed
hypotensive effect ([1]; result in words): clear, long-lasting hypotensive effect
effect on hepatic disease induced by D-galactosamine hydrochloride ([2]; 50 mg/kg each intraabdominal, result in words): ameliorated or prevented
Alkali phosphatase value ([2]; test compound 50 mg/kg each and D-galactosamine hydrochloride 250 mg/kg each, intraabdominal, control 70.9 ± 3.9, normal 32.3 ± 2.5): 63.7 ± 4.3 KA-U
GPT Value ([2]; test compound 50 mg/kg each and D-galactosamine hydrochloride 250 mg/kg each, intraabdominal, control 1041.4 ± 200.8, normal 46.5 ± 4.9): 523.3 ± 111.7 Carmen unit
